Consider 1 compound from publication PMC9719519, “Non-classical ferroptosis inhibition by a small molecule targeting PHB2” (Nature Communications, 2022).

Structures are written as SMILES.

What all share (assay): biochemical
Holding throughout (set-up): Eurofins recombinant human kinase profiling, remaining kinase activity as % of control, 10 uM ATP
Common to all, as to settings: ATP 10 uM; read-out: %Ctrl@10 μM

One test has as its target STK16(h) (Homo sapiens, UniProt O75716). The gist of the method: (§1)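 Recombinant human kinases, 401 in total, screened using an outsourced kinase profiling assay.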
A further test has as its target CDKL4(h) (Homo sapiens, UniProt Q5MAI5). The gist of the method: as §1
The next test deals with JAK3(h) (Homo sapiens, UniProt P52333). The essentials: as §1
A further test has as its target DAPK2(h) (Homo sapiens, UniProt Q9UIK4). The gist of the method: as §1
The target of the next test is CDK7/cyclinH/MAT1(h) (Homo sapiens, UniProt P50613). The gist of the method: as §1
Another test concerns the target T1, MAPK1(h) (Homo sapiens, UniProt P27361).
T1 construct: gene MAPK3
The essentials: as §1

The next test addresses ErbB2(h) (Homo sapiens, UniProt P04626). The gist of the method: as §1
Another test deals with T2, cKit(V560G)(h) (Homo sapiens, UniProt P10721, V560G).
T2 construct: gene KIT
The gist of the method:
as §1

The target of another test is T3, IKKα(h) (Homo sapiens, UniProt O15111).
T3 construct: gene CHUK
The essentials: as §1

The target of a further test is T4, PKG1β(h) (Homo sapiens, UniProt Q13976).
T4 construct: gene PRKG1; isoform 1beta
The gist of the method:
as §1

A further test deals with T5, Abl(T315I)(h) (Homo sapiens, UniProt P00519, T315I).
T5 construct: gene ABL1
The gist of the method:
as §1

The target in another test is STK25(h) (Homo sapiens, UniProt O00506). The gist of the method:
as §1

The target of a further test is CDK14/cyclinY(h) (Homo sapiens, UniProt O94921). The gist of the method:
as §1

Another test addresses LIMK2(h) (Homo sapiens, UniProt P53671). The gist of the method: as §1
A further test deals with MARK1(h) (Homo sapiens, UniProt Q9P0L2). The gist of the method:
as §1

A further test concerns the target Fyn(h) (Homo sapiens, UniProt P06241). The gist of the method: as §1
The target in another test is T6, BIKe(h) (Homo sapiens, UniProt Q9NSY1).
T6 construct: gene BMP2K
The gist of the method: as §1

The target of the next test is Fgr(h) (Homo sapiens, UniProt P09769). The essentials:
as §1

The target in the next test is CDKL1(h) (Homo sapiens, UniProt Q00532). The essentials:
as §1

Another test has as its target EphB3(h) (Homo sapiens, UniProt P54753). The gist of the method: as §1
The next test concerns the target Itk(h) (Homo sapiens, UniProt Q08881). The gist of the method: as §1
Another test has as its target T7, MST3(h) (Homo sapiens, UniProt Q9Y6E0).
T7 construct: gene STK24
The gist of the method: as §1

In a further test the target is T8, PKCγ(h) (Homo sapiens, UniProt P05129).
T8 construct: gene PRKCG
The essentials:
as §1

EphB3(h), sequence (P54753 whole entry): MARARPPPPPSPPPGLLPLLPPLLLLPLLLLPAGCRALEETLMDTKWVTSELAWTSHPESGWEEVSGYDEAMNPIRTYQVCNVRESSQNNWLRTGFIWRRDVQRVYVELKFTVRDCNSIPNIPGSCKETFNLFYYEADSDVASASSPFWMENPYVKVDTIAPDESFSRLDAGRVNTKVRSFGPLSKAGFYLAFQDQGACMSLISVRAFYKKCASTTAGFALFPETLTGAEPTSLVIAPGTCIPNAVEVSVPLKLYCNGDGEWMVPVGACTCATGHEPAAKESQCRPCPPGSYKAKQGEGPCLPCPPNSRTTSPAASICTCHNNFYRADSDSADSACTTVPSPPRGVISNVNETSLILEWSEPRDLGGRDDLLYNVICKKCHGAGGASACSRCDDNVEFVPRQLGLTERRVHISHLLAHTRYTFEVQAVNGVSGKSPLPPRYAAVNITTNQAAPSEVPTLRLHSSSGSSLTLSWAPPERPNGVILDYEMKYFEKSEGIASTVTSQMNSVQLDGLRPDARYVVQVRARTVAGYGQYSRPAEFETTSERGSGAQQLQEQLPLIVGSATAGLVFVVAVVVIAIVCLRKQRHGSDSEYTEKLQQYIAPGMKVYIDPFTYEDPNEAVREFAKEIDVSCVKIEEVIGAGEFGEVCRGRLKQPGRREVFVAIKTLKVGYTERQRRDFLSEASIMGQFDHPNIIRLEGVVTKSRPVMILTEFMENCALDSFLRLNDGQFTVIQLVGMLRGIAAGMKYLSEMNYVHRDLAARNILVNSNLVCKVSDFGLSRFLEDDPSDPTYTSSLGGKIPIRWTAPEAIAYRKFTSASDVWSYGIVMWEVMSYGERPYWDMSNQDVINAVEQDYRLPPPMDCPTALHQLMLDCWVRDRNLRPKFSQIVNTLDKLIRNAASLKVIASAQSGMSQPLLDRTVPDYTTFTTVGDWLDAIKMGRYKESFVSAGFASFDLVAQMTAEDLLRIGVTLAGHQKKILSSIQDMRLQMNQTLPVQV
CDK7/cyclinH/MAT1(h), sequence (P50613 whole entry): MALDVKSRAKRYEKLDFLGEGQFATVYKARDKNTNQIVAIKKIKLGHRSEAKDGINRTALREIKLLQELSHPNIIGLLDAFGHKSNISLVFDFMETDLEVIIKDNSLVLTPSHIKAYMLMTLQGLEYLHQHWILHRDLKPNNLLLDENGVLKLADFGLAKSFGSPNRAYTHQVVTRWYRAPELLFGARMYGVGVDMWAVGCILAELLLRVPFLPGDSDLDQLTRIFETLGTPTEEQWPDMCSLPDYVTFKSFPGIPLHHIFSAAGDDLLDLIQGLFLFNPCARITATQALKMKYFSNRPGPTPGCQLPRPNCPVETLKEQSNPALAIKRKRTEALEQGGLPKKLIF
CDK7/cyclinH/MAT1(h), sequence (P51946 whole entry partner): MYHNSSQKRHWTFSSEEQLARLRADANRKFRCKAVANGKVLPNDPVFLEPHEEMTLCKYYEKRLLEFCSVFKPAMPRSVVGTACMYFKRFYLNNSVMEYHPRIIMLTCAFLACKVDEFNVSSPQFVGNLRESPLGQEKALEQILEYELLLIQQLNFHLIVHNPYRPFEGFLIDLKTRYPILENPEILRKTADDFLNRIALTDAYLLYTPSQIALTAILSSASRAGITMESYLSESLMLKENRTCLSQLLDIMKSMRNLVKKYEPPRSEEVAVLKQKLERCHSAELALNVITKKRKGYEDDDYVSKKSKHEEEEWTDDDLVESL
CDK7/cyclinH/MAT1(h), sequence (P51948 whole entry partner): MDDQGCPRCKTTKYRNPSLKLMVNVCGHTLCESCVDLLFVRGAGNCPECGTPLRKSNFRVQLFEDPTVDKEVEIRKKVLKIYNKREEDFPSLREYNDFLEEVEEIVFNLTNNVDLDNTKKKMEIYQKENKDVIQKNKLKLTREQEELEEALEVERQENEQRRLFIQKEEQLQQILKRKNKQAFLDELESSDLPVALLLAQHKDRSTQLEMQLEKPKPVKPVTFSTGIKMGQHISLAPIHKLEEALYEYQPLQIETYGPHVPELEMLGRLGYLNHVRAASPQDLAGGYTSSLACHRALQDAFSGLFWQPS
T1 sequence (P27361 whole entry): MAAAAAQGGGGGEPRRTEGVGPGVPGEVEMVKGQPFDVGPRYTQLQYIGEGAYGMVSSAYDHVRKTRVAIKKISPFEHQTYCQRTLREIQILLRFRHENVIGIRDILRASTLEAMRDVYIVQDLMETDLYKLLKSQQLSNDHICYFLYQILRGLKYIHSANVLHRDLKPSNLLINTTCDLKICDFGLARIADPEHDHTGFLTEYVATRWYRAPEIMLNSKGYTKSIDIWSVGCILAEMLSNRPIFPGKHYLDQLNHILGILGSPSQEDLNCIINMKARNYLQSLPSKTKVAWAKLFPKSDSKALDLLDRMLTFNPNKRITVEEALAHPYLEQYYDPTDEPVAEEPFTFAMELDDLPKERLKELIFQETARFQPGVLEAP
Fgr(h), sequence (P09769 whole entry): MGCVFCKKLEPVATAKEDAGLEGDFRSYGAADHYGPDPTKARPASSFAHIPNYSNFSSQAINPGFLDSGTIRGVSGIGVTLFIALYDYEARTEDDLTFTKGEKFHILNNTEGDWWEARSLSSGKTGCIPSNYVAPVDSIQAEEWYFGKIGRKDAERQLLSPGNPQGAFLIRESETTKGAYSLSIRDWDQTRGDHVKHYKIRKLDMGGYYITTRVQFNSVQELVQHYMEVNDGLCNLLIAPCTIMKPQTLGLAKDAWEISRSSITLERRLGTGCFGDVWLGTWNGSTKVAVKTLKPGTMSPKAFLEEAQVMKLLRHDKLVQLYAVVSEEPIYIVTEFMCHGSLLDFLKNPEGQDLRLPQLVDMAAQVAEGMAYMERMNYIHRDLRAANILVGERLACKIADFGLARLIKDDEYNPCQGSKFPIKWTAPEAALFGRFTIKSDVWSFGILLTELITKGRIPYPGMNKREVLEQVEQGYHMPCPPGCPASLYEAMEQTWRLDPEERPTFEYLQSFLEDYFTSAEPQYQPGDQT
STK16(h), sequence (O75716 whole entry): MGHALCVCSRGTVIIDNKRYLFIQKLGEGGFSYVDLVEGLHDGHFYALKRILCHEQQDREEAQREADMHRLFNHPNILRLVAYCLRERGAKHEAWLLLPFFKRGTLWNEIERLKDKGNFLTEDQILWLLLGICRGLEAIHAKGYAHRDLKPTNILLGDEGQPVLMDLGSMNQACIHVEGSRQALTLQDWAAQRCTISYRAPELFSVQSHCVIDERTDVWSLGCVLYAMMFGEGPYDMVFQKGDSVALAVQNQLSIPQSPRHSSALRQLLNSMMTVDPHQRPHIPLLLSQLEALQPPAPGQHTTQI
CDKL4(h), sequence (Q5MAI5 whole entry): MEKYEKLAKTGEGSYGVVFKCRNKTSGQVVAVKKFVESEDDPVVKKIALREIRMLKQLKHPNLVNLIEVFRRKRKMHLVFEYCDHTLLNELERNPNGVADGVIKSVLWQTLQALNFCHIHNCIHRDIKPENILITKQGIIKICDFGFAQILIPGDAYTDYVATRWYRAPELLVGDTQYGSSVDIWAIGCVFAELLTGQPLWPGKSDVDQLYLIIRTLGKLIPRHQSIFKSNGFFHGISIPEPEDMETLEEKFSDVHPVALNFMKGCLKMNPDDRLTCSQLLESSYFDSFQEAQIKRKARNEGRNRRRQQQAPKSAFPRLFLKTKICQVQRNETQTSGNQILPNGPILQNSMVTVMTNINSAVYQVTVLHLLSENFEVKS
CDK14/cyclinY(h), sequence (O94921 whole entry): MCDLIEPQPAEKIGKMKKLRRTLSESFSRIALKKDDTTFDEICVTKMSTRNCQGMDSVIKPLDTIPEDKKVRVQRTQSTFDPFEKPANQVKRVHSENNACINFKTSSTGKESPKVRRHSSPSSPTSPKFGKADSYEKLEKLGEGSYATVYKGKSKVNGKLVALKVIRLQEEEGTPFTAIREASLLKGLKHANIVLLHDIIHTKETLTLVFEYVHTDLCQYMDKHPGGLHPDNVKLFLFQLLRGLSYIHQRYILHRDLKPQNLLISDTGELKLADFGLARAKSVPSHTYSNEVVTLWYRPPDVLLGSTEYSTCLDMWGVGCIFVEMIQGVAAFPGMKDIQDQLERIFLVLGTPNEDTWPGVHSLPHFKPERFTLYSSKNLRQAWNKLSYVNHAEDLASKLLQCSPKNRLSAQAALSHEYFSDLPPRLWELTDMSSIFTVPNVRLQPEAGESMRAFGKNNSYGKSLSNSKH
CDK14/cyclinY(h), sequence (Q8ND76 whole entry partner): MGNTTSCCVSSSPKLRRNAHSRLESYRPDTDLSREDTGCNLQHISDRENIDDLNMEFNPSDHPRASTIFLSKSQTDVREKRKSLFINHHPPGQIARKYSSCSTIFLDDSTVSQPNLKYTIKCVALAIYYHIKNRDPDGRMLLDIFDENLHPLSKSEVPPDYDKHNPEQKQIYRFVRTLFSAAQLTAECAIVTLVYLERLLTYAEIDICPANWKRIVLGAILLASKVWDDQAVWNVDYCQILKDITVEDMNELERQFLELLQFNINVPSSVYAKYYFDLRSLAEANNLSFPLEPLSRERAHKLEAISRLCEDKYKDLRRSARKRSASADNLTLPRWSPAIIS
DAPK2(h), sequence (Q9UIK4 whole entry): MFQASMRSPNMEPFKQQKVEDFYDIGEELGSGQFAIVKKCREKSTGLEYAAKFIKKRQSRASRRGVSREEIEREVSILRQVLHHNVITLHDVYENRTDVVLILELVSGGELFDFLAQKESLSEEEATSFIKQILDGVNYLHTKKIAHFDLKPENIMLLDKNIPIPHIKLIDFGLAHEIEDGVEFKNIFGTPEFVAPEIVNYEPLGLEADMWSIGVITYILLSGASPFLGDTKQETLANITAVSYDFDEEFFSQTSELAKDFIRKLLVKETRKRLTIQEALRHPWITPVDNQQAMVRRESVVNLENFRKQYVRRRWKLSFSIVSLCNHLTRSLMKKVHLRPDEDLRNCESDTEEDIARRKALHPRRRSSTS

`C1=C(c2nc(-c3cnn(C4CCNCC4)c3)cn3cc(-c4ccccc4)nc23)CCOC1` [YL-939]: the remaining activity at 10 µM at STK16(h) came out at 100%; on CDKL4(h), 76%; on JAK3(h), 91%; on DAPK2(h), 138%; on CDK7/cyclinH/MAT1(h) it was 92%; at MAPK1(h), 103%. The remaining activity at 10 µM on ErbB2(h) is 72%; at cKit(V560G)(h), 88%; at IKKα(h), 92%; on PKG1β(h) it was 83%; at Abl(T315I)(h), 119%; at STK25(h), 82%. For the same compound, the remaining activity at 10 µM stood at 111% on CDK14/cyclinY(h); 85% on LIMK2(h); 95% on MARK1(h); 81% on Fyn(h); 115% at BIKe(h); 76% at Fgr(h). The remaining activity at 10 µM stood at 96% on CDKL1(h); 93% at EphB3(h); 106% on Itk(h); 97% on MST3(h); 96% at PKCγ(h).
